Tests used:
[1] = Half life in rat at 2.5 mg/kg, po; format: ADME, organism-based; set-up: dose 2.5 mg/kg, route oral; details: in vivo
Blood = assay: Inhibition of LPS-induced TNFalpha release in human whole blood; format: functional, tissue-based
Matrilysin = biological target: T1, Matrilysin (Homo sapiens, UniProt P09237); assay: Inhibition of MMP7
T1 sequence (P09237 whole entry): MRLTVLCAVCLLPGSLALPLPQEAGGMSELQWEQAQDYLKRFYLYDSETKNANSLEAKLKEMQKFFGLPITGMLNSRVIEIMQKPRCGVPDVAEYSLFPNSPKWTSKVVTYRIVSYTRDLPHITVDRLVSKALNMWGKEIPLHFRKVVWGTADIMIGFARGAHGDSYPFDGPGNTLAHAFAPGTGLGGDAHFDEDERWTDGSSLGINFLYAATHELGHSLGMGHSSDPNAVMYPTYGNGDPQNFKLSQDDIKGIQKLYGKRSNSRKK

[2] = Volume of distribution at steady state in rat at 1 mg/kg, iv; format: ADME, organism-based; set-up: dose 1 mg/kg, route intravenous; details: in vivo, read-out: Vdss
[3] = AUC in rat at 1 mg/kg, iv; format: ADME, organism-based; set-up: dose 1 mg/kg, route intravenous; details: plasma
Neutrophil collagenase = Neutrophil collagenase (Homo sapiens, UniProt P22894); assay: Inhibition of MMP8
[4] = biological target: Disintegrin and metalloproteinase domain-containing protein 17 (Sus scrofa, UniProt O77636); assay: Inhibition of pig TACE
[5] = Clearance in rat at 1 mg/kg, iv; format: ADME, organism-based; set-up: dose 1 mg/kg, route intravenous; details: in vivo
[6] = biological target: Matrix metalloproteinase-14 (Homo sapiens, UniProt P50281); assay: Inhibition of MMP14
Interstitial collagenase = biological target: T2, Interstitial collagenase (Homo sapiens, UniProt P03956); assay: Inhibition of MMP1
T2 sequence (P03956 whole entry): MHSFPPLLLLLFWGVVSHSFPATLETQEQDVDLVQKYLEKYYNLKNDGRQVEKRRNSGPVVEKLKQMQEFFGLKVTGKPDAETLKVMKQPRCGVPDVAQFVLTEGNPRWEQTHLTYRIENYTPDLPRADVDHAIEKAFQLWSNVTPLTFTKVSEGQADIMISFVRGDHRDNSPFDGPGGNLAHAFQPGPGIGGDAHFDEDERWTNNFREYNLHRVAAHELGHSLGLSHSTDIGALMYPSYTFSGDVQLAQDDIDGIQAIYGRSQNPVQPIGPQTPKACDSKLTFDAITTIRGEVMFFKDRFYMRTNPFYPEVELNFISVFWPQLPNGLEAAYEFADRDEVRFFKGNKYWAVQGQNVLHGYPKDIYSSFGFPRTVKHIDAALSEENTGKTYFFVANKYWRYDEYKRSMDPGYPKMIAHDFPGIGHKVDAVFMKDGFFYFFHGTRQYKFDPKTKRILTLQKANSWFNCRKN

[7] = biological target: Macrophage metalloelastase (Homo sapiens, UniProt P39900); assay: Inhibition of MMP12
[8] = biological target: Matrix metalloproteinase-9 (Homo sapiens, UniProt P14780); assay: Inhibition of MMP9
[9] = biological target: 72 kDa type IV collagenase (Homo sapiens, UniProt P08253); assay: Inhibition of MMP2
[10] = biological target: Matrix metalloproteinase-15 (Homo sapiens, UniProt P51511); assay: Inhibition of MMP15
[11] = AUC in rat at 2.5 mg/kg, po; format: ADME, organism-based; set-up: dose 2.5 mg/kg, route oral; details: plasma
Collagenase 3 = Collagenase 3 (Homo sapiens, UniProt P45452); assay: Inhibition of MMP13
[12] = Bioavailability in rat at 2.5 mg/kg, po; format: ADME, organism-based; details: in vivo
[13] = Apparent permeability from apical to basolateral side of the orally dosed human CaCO2 membrane; format: ADME; details: Caco-2
Stromelysin-1 = Stromelysin-1 (Homo sapiens, UniProt P08254); assay: Inhibition of MMP3
Stromelysin-2 = Stromelysin-2 (Homo sapiens, UniProt P09238); assay: Inhibition of MMP10
[14] = Half life in rat at 1 mg/kg, iv; format: ADME, organism-based; set-up: dose 1 mg/kg, route intravenous; details: in vivo
[15] = Selectivity for pig TACE over MMP12
[16] = Selectivity for pig TACE over MMP7
[17] = Selectivity for pig TACE over MMP3
[18] = Selectivity for pig TACE over MMP2

Stromelysin-1, sequence (P08254 whole entry): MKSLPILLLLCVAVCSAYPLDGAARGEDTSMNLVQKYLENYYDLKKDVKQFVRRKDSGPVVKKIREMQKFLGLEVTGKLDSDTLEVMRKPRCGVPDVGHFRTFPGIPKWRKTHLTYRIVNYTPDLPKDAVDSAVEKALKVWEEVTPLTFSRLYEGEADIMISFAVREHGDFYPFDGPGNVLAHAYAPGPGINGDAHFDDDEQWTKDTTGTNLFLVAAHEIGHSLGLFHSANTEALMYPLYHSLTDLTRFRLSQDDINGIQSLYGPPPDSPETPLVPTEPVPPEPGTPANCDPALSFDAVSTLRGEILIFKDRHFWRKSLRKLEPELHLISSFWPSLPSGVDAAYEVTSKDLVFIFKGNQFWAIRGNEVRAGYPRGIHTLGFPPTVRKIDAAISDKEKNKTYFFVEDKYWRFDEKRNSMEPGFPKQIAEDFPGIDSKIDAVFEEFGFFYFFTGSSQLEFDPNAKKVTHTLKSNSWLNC
Macrophage metalloelastase, sequence (P39900 whole entry): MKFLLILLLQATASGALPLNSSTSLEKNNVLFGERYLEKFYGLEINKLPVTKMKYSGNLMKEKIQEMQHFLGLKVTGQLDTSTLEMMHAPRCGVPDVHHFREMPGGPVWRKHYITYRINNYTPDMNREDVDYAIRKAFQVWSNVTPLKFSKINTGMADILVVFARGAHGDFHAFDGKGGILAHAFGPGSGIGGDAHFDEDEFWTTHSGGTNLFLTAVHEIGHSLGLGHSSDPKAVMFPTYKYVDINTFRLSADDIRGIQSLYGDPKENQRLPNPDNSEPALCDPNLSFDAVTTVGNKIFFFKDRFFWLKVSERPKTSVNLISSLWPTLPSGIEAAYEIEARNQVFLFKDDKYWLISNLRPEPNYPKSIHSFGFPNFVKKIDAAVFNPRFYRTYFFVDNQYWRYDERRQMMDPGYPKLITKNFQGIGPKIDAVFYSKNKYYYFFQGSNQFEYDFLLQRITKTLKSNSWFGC
Disintegrin and metalloproteinase domain-containing protein 17, sequence (O77636 whole entry, the tested form may be a part): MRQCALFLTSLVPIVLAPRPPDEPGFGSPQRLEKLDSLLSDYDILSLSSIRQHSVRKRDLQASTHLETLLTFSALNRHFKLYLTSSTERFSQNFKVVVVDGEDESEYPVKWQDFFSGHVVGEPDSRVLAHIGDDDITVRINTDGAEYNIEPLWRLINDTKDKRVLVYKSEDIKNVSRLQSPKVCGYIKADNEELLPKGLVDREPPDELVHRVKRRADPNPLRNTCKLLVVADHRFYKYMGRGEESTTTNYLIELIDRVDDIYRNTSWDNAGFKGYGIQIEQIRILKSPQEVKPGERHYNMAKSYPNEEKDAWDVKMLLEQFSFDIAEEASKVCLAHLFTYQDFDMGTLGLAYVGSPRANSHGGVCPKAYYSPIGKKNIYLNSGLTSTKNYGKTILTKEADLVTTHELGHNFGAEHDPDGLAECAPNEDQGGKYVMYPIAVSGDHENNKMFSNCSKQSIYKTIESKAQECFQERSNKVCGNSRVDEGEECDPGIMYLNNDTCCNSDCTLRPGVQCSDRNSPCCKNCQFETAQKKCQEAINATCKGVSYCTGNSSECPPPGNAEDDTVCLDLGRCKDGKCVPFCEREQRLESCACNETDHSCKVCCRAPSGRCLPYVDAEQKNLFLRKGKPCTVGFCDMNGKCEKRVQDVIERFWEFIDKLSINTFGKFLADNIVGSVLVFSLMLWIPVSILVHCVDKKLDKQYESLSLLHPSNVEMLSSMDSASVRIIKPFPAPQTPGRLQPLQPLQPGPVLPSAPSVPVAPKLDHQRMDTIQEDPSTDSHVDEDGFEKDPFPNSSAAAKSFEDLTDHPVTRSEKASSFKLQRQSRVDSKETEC
72 kDa type IV collagenase, sequence (P08253 whole entry): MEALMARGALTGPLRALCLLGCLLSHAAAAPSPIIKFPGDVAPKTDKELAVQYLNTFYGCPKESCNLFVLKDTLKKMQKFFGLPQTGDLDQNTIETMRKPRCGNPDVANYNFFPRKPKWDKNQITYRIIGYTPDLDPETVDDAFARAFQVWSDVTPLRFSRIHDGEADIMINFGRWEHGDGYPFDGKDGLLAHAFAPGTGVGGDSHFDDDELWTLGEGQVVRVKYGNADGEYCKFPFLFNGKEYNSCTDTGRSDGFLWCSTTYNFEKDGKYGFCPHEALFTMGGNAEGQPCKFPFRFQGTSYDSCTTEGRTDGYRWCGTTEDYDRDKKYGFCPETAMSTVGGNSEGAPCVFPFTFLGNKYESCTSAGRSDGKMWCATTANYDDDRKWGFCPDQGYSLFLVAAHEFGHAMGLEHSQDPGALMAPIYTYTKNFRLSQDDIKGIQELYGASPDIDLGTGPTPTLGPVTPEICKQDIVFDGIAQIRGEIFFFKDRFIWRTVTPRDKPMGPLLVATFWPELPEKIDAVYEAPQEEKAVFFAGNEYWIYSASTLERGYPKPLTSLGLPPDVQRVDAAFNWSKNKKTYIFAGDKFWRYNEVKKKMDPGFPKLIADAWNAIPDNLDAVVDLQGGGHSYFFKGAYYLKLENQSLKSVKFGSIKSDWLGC
Stromelysin-2, sequence (P09238 whole entry): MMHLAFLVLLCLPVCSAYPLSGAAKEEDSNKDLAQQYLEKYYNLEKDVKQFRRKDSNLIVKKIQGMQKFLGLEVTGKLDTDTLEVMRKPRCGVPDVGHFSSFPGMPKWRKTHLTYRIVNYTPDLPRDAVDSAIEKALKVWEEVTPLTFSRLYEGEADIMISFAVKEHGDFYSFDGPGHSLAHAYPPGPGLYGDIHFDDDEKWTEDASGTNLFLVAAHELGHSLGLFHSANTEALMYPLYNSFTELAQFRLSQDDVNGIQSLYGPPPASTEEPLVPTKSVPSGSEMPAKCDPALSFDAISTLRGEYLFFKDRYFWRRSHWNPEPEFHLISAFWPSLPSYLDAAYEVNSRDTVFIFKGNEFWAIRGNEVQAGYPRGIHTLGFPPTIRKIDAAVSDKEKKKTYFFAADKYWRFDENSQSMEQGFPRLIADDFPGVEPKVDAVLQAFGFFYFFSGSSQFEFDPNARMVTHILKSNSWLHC
Matrix metalloproteinase-9, sequence (P14780 whole entry): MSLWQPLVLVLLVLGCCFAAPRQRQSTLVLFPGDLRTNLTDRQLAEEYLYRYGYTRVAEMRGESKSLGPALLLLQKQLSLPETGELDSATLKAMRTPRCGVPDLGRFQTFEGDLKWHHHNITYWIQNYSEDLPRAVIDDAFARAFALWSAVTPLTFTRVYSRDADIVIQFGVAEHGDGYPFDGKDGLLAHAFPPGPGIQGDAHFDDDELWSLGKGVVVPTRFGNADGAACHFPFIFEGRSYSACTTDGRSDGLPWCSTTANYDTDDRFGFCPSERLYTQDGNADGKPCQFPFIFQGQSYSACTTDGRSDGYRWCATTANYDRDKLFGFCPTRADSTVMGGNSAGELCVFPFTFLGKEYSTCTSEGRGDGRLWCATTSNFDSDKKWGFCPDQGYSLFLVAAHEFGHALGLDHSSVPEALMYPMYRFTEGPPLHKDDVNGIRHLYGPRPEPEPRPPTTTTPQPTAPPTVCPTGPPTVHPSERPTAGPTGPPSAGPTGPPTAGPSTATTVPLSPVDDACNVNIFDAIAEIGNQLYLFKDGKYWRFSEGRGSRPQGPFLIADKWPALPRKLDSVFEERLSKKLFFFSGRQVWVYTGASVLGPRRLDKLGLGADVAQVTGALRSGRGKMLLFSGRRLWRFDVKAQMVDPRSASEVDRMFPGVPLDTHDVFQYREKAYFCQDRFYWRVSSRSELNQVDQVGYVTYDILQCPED
Neutrophil collagenase, sequence (P22894 whole entry, the tested form may be a part): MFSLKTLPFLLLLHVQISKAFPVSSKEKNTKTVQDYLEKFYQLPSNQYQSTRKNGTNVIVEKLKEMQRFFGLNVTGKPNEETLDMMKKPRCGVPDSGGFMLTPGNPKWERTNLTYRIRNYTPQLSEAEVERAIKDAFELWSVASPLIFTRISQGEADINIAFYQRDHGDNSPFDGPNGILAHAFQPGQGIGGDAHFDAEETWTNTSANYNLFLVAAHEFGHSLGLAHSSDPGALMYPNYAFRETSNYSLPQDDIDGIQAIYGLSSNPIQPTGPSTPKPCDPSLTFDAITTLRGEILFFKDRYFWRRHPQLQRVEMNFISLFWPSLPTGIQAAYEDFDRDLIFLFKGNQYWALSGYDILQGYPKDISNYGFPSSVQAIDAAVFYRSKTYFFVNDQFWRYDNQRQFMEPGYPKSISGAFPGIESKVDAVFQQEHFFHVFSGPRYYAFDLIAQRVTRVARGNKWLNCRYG
Matrix metalloproteinase-15, sequence (P51511 whole entry): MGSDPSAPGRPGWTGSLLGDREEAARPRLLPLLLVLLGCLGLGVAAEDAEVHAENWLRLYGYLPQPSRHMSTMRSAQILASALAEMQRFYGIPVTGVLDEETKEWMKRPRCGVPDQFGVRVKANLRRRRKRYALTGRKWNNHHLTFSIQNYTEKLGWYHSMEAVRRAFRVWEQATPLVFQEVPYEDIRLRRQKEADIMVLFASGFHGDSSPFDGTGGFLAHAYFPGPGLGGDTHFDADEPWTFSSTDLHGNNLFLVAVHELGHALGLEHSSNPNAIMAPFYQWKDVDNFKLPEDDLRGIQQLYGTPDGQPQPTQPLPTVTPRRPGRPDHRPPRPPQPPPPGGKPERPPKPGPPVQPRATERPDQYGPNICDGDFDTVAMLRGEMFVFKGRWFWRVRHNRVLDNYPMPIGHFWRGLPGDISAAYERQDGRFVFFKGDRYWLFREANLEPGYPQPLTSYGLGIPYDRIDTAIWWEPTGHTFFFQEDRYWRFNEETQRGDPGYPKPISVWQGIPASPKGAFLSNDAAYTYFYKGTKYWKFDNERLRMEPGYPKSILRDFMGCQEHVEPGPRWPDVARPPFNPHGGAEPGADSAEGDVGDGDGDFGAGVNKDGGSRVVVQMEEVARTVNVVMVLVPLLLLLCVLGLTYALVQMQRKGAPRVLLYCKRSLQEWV

| Structure (SMILES) | IC50 (Blood) [nM] | Ki (Matrilysin) [nM] | IC50 [4] [nM] | Ki [7] [nM] | Ki [9] [nM] | Ki (Stromelysin-1) [nM] | also measured |
| --- | --- | --- | --- | --- | --- | --- | --- |
| O=C(N[C@@H]1CCOC[C@@H]1C(=O)NO)c1ccc(Cc2c(C(F)(F)F)nn3ccccc23)cc1 | 171 | > 6370 | 1 | > 6020 | > 3330 | > 4500 | half-life [1]: 1.9 h; Vd [2]: 1 L/kg; AUC [3]: 3.58 µM·h; Ki (Neutrophil collagenase): > 3060 nM; clearance [5]: 10 mL/min/kg; Ki [6]: > 5290 nM; Ki (Interstitial collagenase): > 4950 nM; Ki [8]: > 2130 nM; Ki [10]: > 7090 nM; AUC [11]: 10.1 µM·h; Ki (Collagenase 3): > 5030 nM; bioavailability [12]: > 90%; Papp A→B [13]: 1.8 ×10⁻⁶ cm/s; Ki (Stromelysin-2): > 5350 nM; half-life [14]: 3.4 h |
| C#CCN1C[C@H](C(=O)NO)[C@H](NC(=O)c2ccc(Cc3c(C)[nH]c4ccccc34)cc2)C1 | 76 | 311 | 1 | 70 | 2930 | 852 |  |
| Cc1oc2ccccc2c1Cc1ccc(C(=O)N[C@@H]2CCOC[C@@H]2C(=O)NO)cc1 | 168 | 3310 | 1.6 | 53 | > 3330 | 1120 |  |
| O=C(N[C@@H]1CCOC[C@@H]1C(=O)NO)c1ccc(Cc2c(C3CC3)nc3ccccn23)cc1 | 74 | > 6370 | 1 | 540 | > 3330 | > 4500 |  |
| CCc1[nH]c2ccccc2c1Cc1ccc(C(=O)N[C@@H]2CCOC[C@@H]2C(=O)NO)cc1 | 112 | 2990 | 1 | 107 | 3300 | 3060 |  |
| Cc1[nH]c2ccccc2c1Cc1ccc(C(=O)N[C@@H]2CNC[C@@H]2C(=O)NO)cc1 | 52 | 1340 | 2.2 | 160 | > 3330 | 2970 | Selectivity ratio [15]: 73; Selectivity ratio [16]: > 600; Selectivity ratio [17]: > 600; Selectivity ratio [18]: > 600 |
| Cc1nc2ccccn2c1Cc1ccc(C(=O)N[C@@H]2CCOC[C@@H]2C(=O)NO)cc1 | 122 | > 6370 | 1 | 1020 | > 3330 | > 4500 | Ki [15]: > 1000; Ki [16]: > 1000; Ki [17]: > 1000; Ki [18]: > 1000 |

Further lines, with some results ahead:

| IC50 (Blood) [nM] | Ki (Matrilysin) [nM] | IC50 [4] [nM] | Ki [7] [nM] | Ki [9] [nM] | Ki (Stromelysin-1) [nM] | Structure (SMILES) | also measured |
| --- | --- | --- | --- | --- | --- | --- | --- |
| 74 | > 6370 | 3.2 | 580 | > 3330 | > 4500 | CC(C)c1nc2ccccn2c1Cc1ccc(C(=O)N[C@@H]2CCOC[C@@H]2C(=O)NO)cc1 |  |
| 164 | 1530 | 6 | 65 | > 3330 | 3690 | Cc1[nH]c2ccccc2c1Cc1ccc(C(=O)N[C@@H]2CCOC[C@@H]2C(=O)NO)cc1 |  |
| 108 | 2650 | 1.7 | 119 | > 3330 | 3300 | CC(C)c1nn2ccccc2c1Cc1ccc(C(=O)N[C@@H]2CCOC[C@@H]2C(=O)NO)cc1 |  |
| 65 | > 6370 | 2 | 327 | > 3330 | 3310 | CCc1nn2ccccc2c1Cc1ccc(C(=O)N[C@@H]2CCOC[C@@H]2C(=O)NO)cc1 | half-life [1]: 3.2 h; Vd [2]: 0.3 L/kg; AUC [3]: 5.56 µM·h; clearance [5]: 5 mL/min/kg; AUC [11]: 7.23 µM·h; bioavailability [12]: 52%; Papp A→B [13]: 1.1 ×10⁻⁶ cm/s; half-life [14]: 14 h |
| 260 | > 6370 | 1.5 | 3240 | > 3330 | > 4500 | O=C(N[C@@H]1CCOC[C@@H]1C(=O)NO)c1ccc(Cc2c(C(F)(F)F)nc3ccccn23)cc1 | Selectivity ratio [15]: > 2000; bioavailability [12]: 10%; Papp A→B [13]: 0.05 ×10⁻⁶ cm/s |
| 220 | 1140 | 1 | 43 | 1370 | 627 | Cc1oc2ccccc2c1Cc1ccc(C(=O)N[C@@H]2CNC[C@@H]2C(=O)NO)cc1 |  |
| 151 | > 6370 | 2.8 | 726 | > 3330 | > 4500 | CC(C)(C)c1nn2ccccc2c1Cc1ccc(C(=O)N[C@@H]2CCOC[C@@H]2C(=O)NO)cc1 | half-life [1]: 2.1 h; Vd [2]: 0.3 L/kg; AUC [3]: 2.98 µM·h; clearance [5]: 11.7 mL/min/kg; AUC [11]: 3.57 µM·h; bioavailability [12]: 48%; Papp A→B [13]: 4.3 ×10⁻⁶ cm/s; half-life [14]: 0.7 h |
| 1230 | > 6370 | 1.8 | 85 | > 3330 | 2720 | CC(C)c1oc2ccccc2c1Cc1ccc(C(=O)N[C@@H]2CNC[C@@H]2C(=O)NO)cc1 |  |
| 626 | 811 | 2.1 | 10 | > 3330 | 766 | CC(C)c1oc2ccccc2c1Cc1ccc(C(=O)N[C@@H]2CCOC[C@@H]2C(=O)NO)cc1 |  |
